The values that follow come from the supplement of paper PMC10011410.

SMILES strings stand for the structures. ± gives the standard deviation of the averaged measurements.

Assay [1] relates to U-2 OS. The assay can be described thus: relative cell count vs DMSO (cell painting) (fraction of DMSO control); higher = more cells remaining (less cytotoxic). The note with it: 24 h. The method in brief:
(§1)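 U-2 OS cells were seeded at about 1,500 per well in 384-well plates and treated by pin tool for 24 h at 37 °C, usually at six 2-fold concentrations from 20 μM to 625 nM. After staining with MitoTracker, concanavalin A, phalloidin, wheat germ agglutinin, Hoechst and SYTO 14, plates were imaged on an Opera Phenix and features were extracted with CellProfiler and normalized to DMSO cells on the same plate. The activity score is the Mahalanobis distance from DMSO wells, and cell count is given relative to DMSO wells. Each value is the mean of four replicate plates.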

For assay [2], the system named is U-2 OS. Description: cell painting activity score (Mahalanobis distance from DMSO wells); higher = stronger morphological phenotype. To be noted: 24 h. The method in brief:
as §1

Assay [3] has as its system U-2 OS. The assay can be described thus: total intracellular glutathione (GSH + GSSG) relative to DMSO (% of control); higher = more glutathione. The note with it: 24 h. The procedure:
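Total intracellular glutathione (GSH + GSSG) in U-2 OS cells by GSH/GSSG-Glo after 24 h compound treatment at 5, 10 and 20 uM (some at 40 and 80 uM), as percent of DMSO control. Five technical replicate plates, averaged.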

The subject of assay [4] is U-2 OS. Description: intracellular GSH:GSSG ratio (calculated); higher = more reduced glutathione pool. To be noted: 24 h. The procedure: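 Intracellular glutathione in U-2 OS cells after 24 h compound treatment at 5, 10 and 20 uM (some at 40 and 80 uM). Total glutathione and GSSG were measured with the GSH/GSSG-Glo kit, and the GSH:GSSG ratio was calculated. Mean of five technical replicate plates.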

Assay [5] deals with U-2 OS. The assay can be described thus: cell viability (CellTiter-Glo) relative to DMSO (% of control); higher = more viable. To be noted: 24 h. The procedure: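 Cell viability of U-2 OS cells by CellTiter-Glo after 24 h compound treatment at 5, 10 and 20 uM (some at 40 and 80 uM), measured in parallel with the glutathione assay, as percent of DMSO control. Five technical replicate plates, averaged.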

In assay [6] the test system is U-2 OS. Description: AUC of culture confluence over time (live-cell imaging) (AUC (confluence % x time)); higher = more confluent culture (less growth inhibition). The method in brief: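 Confluence of U-2 OS cells in F-12K medium with 10% FBS was tracked by live-cell imaging. Cells were seeded at 750 per well in 384-well plates and treated 24 h later by pin tool, with most compounds at 20, 10 and 5 μM and 0.2% DMSO. Cells were kept at 37 °C and imaged every 4 h for up to 60 h on an Incucyte S3 with a 10x objective. The value is the area under the confluence-versus-time curve.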

As for `O=[N+]([O-])c1ccc(-c2nnc(SC3=CS(=O)(=O)c4ccccc43)o2)cc1`, the relative cell count with U-2 OS [1] (0.625 µM) was 0.934; in the assay on U-2 OS [1] (1.25 µM) it was 0.893; in the assay on U-2 OS [1] (2.5 µM), 0.773; in the assay with U-2 OS [1] (5 µM), 0.394; with U-2 OS [1] (10 µM) it was 0.225; in the assay with U-2 OS [1] (20 µM), 0.29. In addition, the “cell painting activity score” value in the assay on U-2 OS [2] (0.625 µM) was 6.12; with U-2 OS [2] (1.25 µM), 8.55; in the assay with U-2 OS [2] (2.5 µM) it was 13.1; in the assay with U-2 OS [2] (5 µM) it was 17.1; with U-2 OS [2] (10 µM) it was 14.6; in the assay with U-2 OS [2] (20 µM), 17.5. Moreover, the total intracellular glutathione is 119 ± 3.7 in the assay on U-2 OS [3] (5 µM), 38.4 ± 3.2 in the assay with U-2 OS [3] (10 µM) and 46.6 ± 3.2 in the assay with U-2 OS [3] (20 µM). For the same molecule, the “intracellular GSH:GSSG ratio” value is 10.4 with U-2 OS [4] (5 µM), 3.4 with U-2 OS [4] (10 µM) and 3.08 in the assay on U-2 OS [4] (20 µM). The cell viability in the assay with U-2 OS [5] (5 µM) came out at 84.5 ± 5.8; with U-2 OS [5] (10 µM), 33.5 ± 5.2; with U-2 OS [5] (20 µM), 49.4 ± 2.6.
On to `O=C1C(NCCN2CCOCC2)=C(Cl)C(=O)c2ncccc21`, for which the relative cell count was determined as 0.572 in the assay with U-2 OS [1] (0.625 µM); 0.496 in the assay on U-2 OS [1] (1.25 µM); 0.191 with U-2 OS [1] (2.5 µM); 0.0808 with U-2 OS [1] (5 µM); 0.0881 in the assay with U-2 OS [1] (10 µM); 0.111 in the assay on U-2 OS [1] (20 µM). Also, the “cell painting activity score” value with U-2 OS [2] (0.625 µM) amounted to 13.7; in the assay with U-2 OS [2] (1.25 µM), 13.9; in the assay with U-2 OS [2] (2.5 µM), 19.1; in the assay on U-2 OS [2] (5 µM) it was 25.9; in the assay on U-2 OS [2] (10 µM), 25.2; with U-2 OS [2] (20 µM) it was 24.1. In addition, the total intracellular glutathione with U-2 OS [3] (5 µM) was 2.27 ± 0.32; in the assay with U-2 OS [3] (10 µM) it was 1.68 ± 0.27; in the assay with U-2 OS [3] (20 µM) it was 2.13 ± 0.32. In addition, the entries for the “AUC of culture confluence over time” value in the assay with U-2 OS [6] (5 µM), with U-2 OS [6] (10 µM) and in the assay with U-2 OS [6] (20 µM) were 13.2, 12.9 and 13, respectively. The values for the cell viability in the assay on U-2 OS [5] (5 µM), in the assay on U-2 OS [5] (10 µM) and in the assay with U-2 OS [5] (20 µM) were 0.456 ± 0.11, 0.267 ± 0.043 and 0.463 ± 0.11, respectively.
Regarding `CCOc1ccccc1-n1c(C(C)N2CCN(C(=O)COc3ccc(Cl)cc3)CC2)nc2ccccc2c1=O` (stereo not given), the relative cell count with U-2 OS [1] (0.625 µM) was found to be 0.983; in the assay on U-2 OS [1] (1.25 µM), 0.945; with U-2 OS [1] (2.5 µM), 0.996; in the assay with U-2 OS [1] (5 µM), 0.969; in the assay on U-2 OS [1] (10 µM), 0.922; with U-2 OS [1] (20 µM), 0.508. Further, the “cell painting activity score” value with U-2 OS [2] (0.625 µM) was determined as 6.32; in the assay with U-2 OS [2] (1.25 µM), 5.84; in the assay on U-2 OS [2] (2.5 µM), 6.59; with U-2 OS [2] (5 µM), 9.13; in the assay on U-2 OS [2] (10 µM), 10.4; in the assay on U-2 OS [2] (20 µM), 14.2. The figures for the total intracellular glutathione in the assay on U-2 OS [3] (5 µM), in the assay on U-2 OS [3] (10 µM) and with U-2 OS [3] (20 µM) were 10.4 ± 0.54, 2.5 ± 0.32 and 1.15 ± 0.16, respectively. Moreover, the “AUC of culture confluence over time” value in the assay with U-2 OS [6] (5 µM) amounted to 45; with U-2 OS [6] (10 µM) it was 40; in the assay on U-2 OS [6] (20 µM) it was 39.9. Further, the cell viability in the assay with U-2 OS [5] (5 µM) is 102 ± 3.5; in the assay with U-2 OS [5] (10 µM), 95.2 ± 4.2; with U-2 OS [5] (20 µM) it was 40.6 ± 14.
As to `CC1=CC(=O)c2ccccc2C1=O`, the relative cell count came out at 0.971 with U-2 OS [1] (0.625 µM); 0.921 in the assay with U-2 OS [1] (1.25 µM); 0.979 with U-2 OS [1] (2.5 µM); 0.89 with U-2 OS [1] (5 µM); 0.643 with U-2 OS [1] (10 µM); 0.277 in the assay on U-2 OS [1] (20 µM). Moreover, the “cell painting activity score” value was 4.82 in the assay on U-2 OS [2] (0.625 µM); 3.53 in the assay on U-2 OS [2] (1.25 µM); 4.48 in the assay on U-2 OS [2] (2.5 µM); 6.92 with U-2 OS [2] (5 µM); 10.5 in the assay on U-2 OS [2] (10 µM); 17.1 in the assay on U-2 OS [2] (20 µM). The total intracellular glutathione in the assay with U-2 OS [3] (5 µM) came to 36.9 ± 4.5; in the assay with U-2 OS [3] (10 µM), 4.53 ± 0.61; in the assay with U-2 OS [3] (20 µM), 3.31 ± 0.24; in the assay with U-2 OS [3] (40 µM), 2.94 ± 0.44; with U-2 OS [3] (80 µM) it was 2.93 ± 0.45. Besides, the “intracellular GSH:GSSG ratio” value is 17.1 in the assay on U-2 OS [4] (5 µM); 2.21 in the assay with U-2 OS [4] (10 µM); 1.63 in the assay with U-2 OS [4] (20 µM); 0.957 with U-2 OS [4] (40 µM); 2.69 with U-2 OS [4] (80 µM). The cell viability was determined as 40 ± 5.8 in the assay on U-2 OS [5] (5 µM); 1.01 ± 0.2 in the assay with U-2 OS [5] (10 µM); 1.22 ± 0.21 with U-2 OS [5] (20 µM); 1.15 ± 0.15 in the assay on U-2 OS [5] (40 µM); 0.692 ± 0.12 in the assay on U-2 OS [5] (80 µM).
